Biological target: T1, monoacylglycerol lipase (MAGL) (Homo sapiens, UniProt Q99685)
T1 construct: gene MGLL
T1 sequence (Q99685 1-303): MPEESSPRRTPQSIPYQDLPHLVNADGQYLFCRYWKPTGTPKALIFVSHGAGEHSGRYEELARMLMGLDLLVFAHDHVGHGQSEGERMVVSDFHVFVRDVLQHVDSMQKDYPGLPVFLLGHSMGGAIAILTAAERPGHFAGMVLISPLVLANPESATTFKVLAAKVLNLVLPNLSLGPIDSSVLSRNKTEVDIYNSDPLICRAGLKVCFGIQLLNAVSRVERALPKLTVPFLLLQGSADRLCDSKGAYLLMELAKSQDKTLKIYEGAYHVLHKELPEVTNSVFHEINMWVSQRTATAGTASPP
Experiment: colorimetric MAGL inhibition assay (Cayman kit […], 4-nitrophenyl acetate hydrolysis, […] nm)
Type: biochemical

SMILES	IC50 [µM]
O=C(O)COCCN1CCN(C(c2ccccc2)c2ccc(Cl)cc2)CC1 (centres unmarked) [cetirizine]	9.39
CC[C@@H](C(N)=O)N1CCCC1=O [levetiracetam]	3.01
